In brackets after ≈: the same amount, converted by molar mass. Some results are limits rather than exact numbers.

Holding throughout (assay type): functional
The subject of assay [1] is Candida tropicalis. Put plainly: Antifungal activity against Candida tropicalis 8915 assessed as inhibition of fungal growth incubated for 48 hrs by microbroth dilution method.
For assay [2], the system named is Nakaseomyces glabratus. Put plainly: Antifungal activity against Candida glabrata 537 assessed as inhibition of fungal growth incubated for 48 hrs by microbroth dilution method.
In assay [3] the test system is Candida parapsilosis. Put plainly: Antifungal activity against Candida parapsilosis 22019 assessed as inhibition of fungal growth incubated for 48 hrs by microbroth dilution method. The note with it: Lodderomyces parapsilosis.
In assay [4] the test system is Candida albicans. The assay is described as follows: Antifungal activity against Candida albicans 10231 assessed as inhibition of fungal growth incubated for 48 hrs by microbroth dilution method.
Assay [5] has as its system Aspergillus fumigatus. The assay is described as follows: Antifungal activity against Aspergillus fumigatus 7544 assessed as inhibition of fungal growth incubated for 72 hrs by microbroth dilution method.
Assay [6] has as its system Pichia kudriavzevii. The assay is described as follows: Antifungal activity against Candida krusei 4996 assessed as inhibition of fungal growth incubated for 48 hrs by microbroth dilution method.
In assay [7] the test system is Cryptococcus neoformans. The assay is described as follows: Antifungal activity against Cryptococcus neoformans 32,609 assessed as inhibition of fungal growth incubated for 72 hrs by microbroth dilution method.
Assay [8] relates to Candida albicans. The assay is described as follows: Antifungal activity against Candida albicans SC5314 assessed as inhibition of fungal growth incubated for 48 hrs by microbroth dilution method.
In assay [9] the test system is Nakaseomyces glabratus. Put plainly: Potency index, ratio of fluconazole MIC to test compound MIC for antifungal activity against Candida glabrata 537 assessed as inhibition of fungal growth incubated for 48 hrs by microbroth dilution method.
In assay [10] the test system is [Candida] auris. Put plainly: Antifungal activity against fluconazole-resistant Candida auris 919 assessed as inhibition of fungal growth incubated for 48 hrs by microbroth dilution method. The note with it: Candidozyma auris.
Assay [11] has as its system [Candida] auris. The assay is described as follows: Antifungal activity against fluconazole-resistant Candida auris 918 assessed as inhibition of fungal growth incubated for 48 hrs by microbroth dilution method. The note with it: Candidozyma auris.
In assay [12] the test system is [Candida] auris. Put plainly: Antifungal activity against fluconazole-resistant Candida auris 891 assessed as inhibition of fungal growth incubated for 48 hrs by microbroth dilution method. The note with it: Candidozyma auris.
Assay [13] relates to Candida albicans. Put plainly: Antifungal activity against fluconazole-resistant Candida albicans 904 assessed as inhibition of fungal growth incubated for 48 hrs by microbroth dilution method.
Assay [14] relates to Candida albicans. Put plainly: Antifungal activity against fluconazole-resistant Candida albicans 901 assessed as inhibition of fungal growth incubated for 48 hrs by microbroth dilution method.

Turning to `C[C@@H](OCC#Cc1c(Cl)cccc1Cl)[C@](O)(Cn1cncn1)c1ccc(F)cc1F`, the MIC in [1] is above 64 µg/mL; in assay [2], 0.25 µg/mL (≈ 0.553 µM); in [3] it was 4 µg/mL (≈ 8.84 µM); in [4], above 64 µg/mL; in assay [5], 4 µg/mL (≈ 8.84 µM); in [6], 16 µg/mL (≈ 35.4 µM). Also, the MIC in assay [7] was at most 0.125 µg/mL; in [8], 0.25 µg/mL (≈ 0.553 µM).

Regarding `C[C@@H](OCC#Cc1cccnc1)[C@](O)(Cn1cncn1)c1ccc(F)cc1F`, the MIC in assay [1] was 64 µg/mL (≈ 166 µM); in [2], at most 0.125 µg/mL; in assay [3] it was at most 0.125 µg/mL; in [4], 32 µg/mL (≈ 83.2 µM); in assay [5], 4 µg/mL (≈ 10.4 µM); in [6], 4 µg/mL (≈ 10.4 µM). The MIC in assay [7] and in assay [8] was at most 0.125 µg/mL in each case. The Ratio entry in [9] is listed as “>=8”.

As for `C[C@@H](OCC#Cc1cc(F)ccc1F)[C@](O)(Cn1cncn1)c1ccc(F)cc1F`, the minimal inhibitory concentration (MIC) was 8 µg/mL (≈ 19.1 µM) in assay [1]; at most 0.125 µg/mL in [2]; 2 µg/mL (≈ 4.77 µM) in assay [3]; 8 µg/mL (≈ 19.1 µM) in assay [4]; 2 µg/mL (≈ 4.77 µM) in [5]; 8 µg/mL (≈ 19.1 µM) in assay [6]. Also, the MIC is 1 µg/mL (≈ 2.38 µM) in [7] and at most 0.125 µg/mL in [8]. Moreover, in assay [9], the Ratio entry is recorded as “>=8”.

Take `C[C@@H](OCC#Cc1ccc(C(F)(F)F)cc1)[C@](O)(Cn1cncn1)c1ccc(F)cc1F`: the minimal inhibitory concentration (MIC) in assay [1] stood at 64 µg/mL (≈ 142 µM); in [2], 1 µg/mL (≈ 2.22 µM); in assay [3], 16 µg/mL (≈ 35.4 µM); in [4] it was 32 µg/mL (≈ 70.9 µM); in [5], 16 µg/mL (≈ 35.4 µM); in assay [6] it was 64 µg/mL (≈ 142 µM). For the same molecule, the MIC was 8 µg/mL (≈ 17.7 µM) in assay [7] and 4 µg/mL (≈ 8.86 µM) in [8].

For `C[C@@H](OCC#Cc1ccccn1)[C@](O)(Cn1cncn1)c1ccc(F)cc1F`, the MIC in assay [1] is above 64 µg/mL; in [2], at most 0.125 µg/mL; in [3], 0.5 µg/mL (≈ 1.3 µM); in [4], 32 µg/mL (≈ 83.2 µM); in assay [5], 8 µg/mL (≈ 20.8 µM); in assay [6], 16 µg/mL (≈ 41.6 µM). Moreover, the figures for the MIC in [7] and in [8] were 0.5 µg/mL (≈ 1.3 µM) and at most 0.125 µg/mL, respectively. The Ratio entry in assay [9] is reported as “>=8”.

With `C[C@@H](OCC#Cc1ccccc1Cl)[C@](O)(Cn1cncn1)c1ccc(F)cc1F`, the minimal inhibitory concentration (MIC) in assay [1] stood at 64 µg/mL (≈ 153 µM); in [2] it was 0.25 µg/mL (≈ 0.598 µM); in assay [3] it was 1 µg/mL (≈ 2.39 µM); in assay [4], 16 µg/mL (≈ 38.3 µM); in assay [5], 4 µg/mL (≈ 9.57 µM); in [6] it was 8 µg/mL (≈ 19.1 µM). The MIC turned out to be 2 µg/mL (≈ 4.79 µM) in [7] and 0.25 µg/mL (≈ 0.598 µM) in [8].

As to `C[C@@H](OCC#Cc1ccccc1F)[C@](O)(Cn1cncn1)c1ccc(F)cc1F`, the MIC in assay [1] is 64 µg/mL (≈ 159 µM); in assay [2], at most 0.125 µg/mL; in assay [3] it was 2 µg/mL (≈ 4.98 µM); in [4], 8 µg/mL (≈ 19.9 µM); in assay [5] it was 4 µg/mL (≈ 9.97 µM); in assay [6], 8 µg/mL (≈ 19.9 µM). Also, the MIC in [7] is 0.5 µg/mL (≈ 1.25 µM); in assay [8], at most 0.125 µg/mL. Besides, the Ratio entry in [9] was “>=8”.

As to `C[C@@H](OCC#Cc1cccc(F)c1)[C@](O)(Cn1cncn1)c1ccc(F)cc1F`, the MIC was 32 µg/mL (≈ 79.7 µM) in assay [1]; at most 0.125 µg/mL in assay [2]; 1 µg/mL (≈ 2.49 µM) in [3]; 16 µg/mL (≈ 39.9 µM) in assay [4]; 1 µg/mL (≈ 2.49 µM) in assay [5]; 16 µg/mL (≈ 39.9 µM) in [6]. Besides, the minimal inhibitory concentration (MIC) in assay [7] was 1 µg/mL (≈ 2.49 µM); in assay [8] it was at most 0.125 µg/mL. Besides, the Ratio entry in assay [9] was “>=8”.

`Cc1cccc(C#CCO[C@H](C)[C@](O)(Cn2cncn2)c2ccc(F)cc2F)c1`: the MIC in assay [1] was 64 µg/mL (≈ 161 µM); in assay [2], 0.25 µg/mL (≈ 0.629 µM); in [3] it was 0.5 µg/mL (≈ 1.26 µM); in assay [4], 8 µg/mL (≈ 20.1 µM); in [5], 1 µg/mL (≈ 2.52 µM); in assay [6], 32 µg/mL (≈ 80.5 µM). Also, the MIC in assay [7] stood at 4 µg/mL (≈ 10.1 µM); in assay [8], 0.5 µg/mL (≈ 1.26 µM).

As to `C[C@@H](OCC#Cc1cccc(F)c1F)[C@](O)(Cn1cncn1)c1ccc(F)cc1F`, the MIC in [1] is 32 µg/mL (≈ 76.3 µM); in [2] it was at most 0.125 µg/mL; in [3] it was 1 µg/mL (≈ 2.38 µM); in [4] it was 16 µg/mL (≈ 38.2 µM); in assay [5] it was 8 µg/mL (≈ 19.1 µM); in assay [6], 8 µg/mL (≈ 19.1 µM). Moreover, the MIC was 1 µg/mL (≈ 2.38 µM) in assay [7] and at most 0.125 µg/mL in assay [8]. In addition, the Ratio result in assay [9] was “>=8”.

As to `C[C@@H](OCC#Cc1ccc(Cl)cc1Cl)[C@](O)(Cn1cncn1)c1ccc(F)cc1F`, the minimal inhibitory concentration (MIC) in assay [10] is 8 µg/mL (≈ 17.7 µM); in assay [1], 32 µg/mL (≈ 70.8 µM); in assay [11], 16 µg/mL (≈ 35.4 µM); in assay [12], 32 µg/mL (≈ 70.8 µM); in [2], 0.25 µg/mL (≈ 0.553 µM); in assay [3], 4 µg/mL (≈ 8.84 µM). Moreover, the MIC worked out at 32 µg/mL (≈ 70.8 µM) in [4]; 4 µg/mL (≈ 8.84 µM) in assay [5]; 32 µg/mL (≈ 70.8 µM) in assay [13]; 64 µg/mL (≈ 142 µM) in assay [14]; 32 µg/mL (≈ 70.8 µM) in [6]; 2 µg/mL (≈ 4.42 µM) in assay [7]. Also, the minimal inhibitory concentration (MIC) in [8] is at most 0.125 µg/mL.

For the origin of these results see ChEMBL document CHEMBL5620353, “Novel antifungal triazoles with alkynyl-methoxyl side chains: Design, synthesis, and biological activity evaluation” (Eur J Med Chem, 2023).
